Data on eight compounds can be found in patent US4560758A, “Process for preparing pyrrolo[1,2-a]imidazoles and imidazo[1,2-a]pyridines” (Pennwalt Corporation, priority 1984, dated 1985).

Structures can show the parent of a compound that is named as a salt.

The first assay concerns mouse hepatitis virus. Put plainly: Antiviral assay - hepatitis in mice. The assay is classed as in vivo. To be noted: 12.5 mg/Kg i.p.; once daily for 3 days; day 4; 0 (normal) to 4 (extreme discoloration); control 2.6 (Examples 11, 16, 23), 3.4 (25, 26). The procedure: Female mice weighing approximately 21-24 grams were inoculated with 0.1 ml of a mouse liver suspension containing mouse hepatitis virus, which liver suspension is at a dilution of 10^-5.5. Starting twenty-four hours post-virus inoculation, the animals were intraperitoneally ("i.p.") or orally administered the test compound(s) once daily for 3 days. On day 4, one third to one half of each group of mice were sacrificed and their liver removed for examination. Each liver was scored and assigned a number from 0 (normal liver) to 4 (extreme discoloration). The mean liver score per group was computed. The number of animals surviving until termination of the study (day 21) was also recorded. Anti-hepatitis activity is evidenced by increased survivor numbers and improved liver scores.
Regarding `COC1(OC)CCN2CC(c3ccccc3)N=C21` (centres unmarked) [Example 25, 2,5,6,7-Tetrahydro-2-phenyl-7,7-dimethoxy-3H-pyrrolo[1,2-a]imidazole sulfate], the “Mean Liver Score” value turned out to be 2.6.

The same assay, now with this note: 12.5 mg/Kg i.p.; once daily for 3 days; day 21; control 5% (Examples 11, 16, 23), 6% (25, 26).
Take `COC1(OC)CCN2CC(c3ccccc3)N=C21` (centres unmarked) [Example 25, 2,5,6,7-Tetrahydro-2-phenyl-7,7-dimethoxy-3H-pyrrolo[1,2-a]imidazole sulfate]: the “Percent Survival” value worked out at 0%.

Staying with this assay, now noted: 25 mg/Kg i.p.; once daily for 3 days; day 4; 0 (normal) to 4 (extreme discoloration); control 2.6 (Examples 11, 23), 3.4 (25, 26).
As to `COC1(OC)CCN2CC(c3ccccc3)N=C21` (centres unmarked) [Example 25, 2,5,6,7-Tetrahydro-2-phenyl-7,7-dimethoxy-3H-pyrrolo[1,2-a]imidazole sulfate], the “Mean Liver Score” value stood at 1.1.

The assay is the same for the next values; noted with them: 25 mg/Kg i.p.; once daily for 3 days; day 21; control 5% (Examples 11, 23), 6% (25, 26).
In the case of `COC1(OC)CCN2CC(c3ccccc3)N=C21` (centres unmarked) [Example 25, 2,5,6,7-Tetrahydro-2-phenyl-7,7-dimethoxy-3H-pyrrolo[1,2-a]imidazole sulfate], the “Percent Survival” value is 0%.

The assay is the same for the next values; noted with them: 50 mg/Kg i.p.; once daily for 3 days; day 4; 0 (normal) to 4 (extreme discoloration); control 3.4.
As to `COC1(OC)CCN2CC(c3ccccc3)N=C21` (centres unmarked) [Example 25, 2,5,6,7-Tetrahydro-2-phenyl-7,7-dimethoxy-3H-pyrrolo[1,2-a]imidazole sulfate], the “Mean Liver Score” value is reported as 1.2.

Staying with this assay, now noted: 50 mg/Kg i.p.; once daily for 3 days; day 21; control 6%.
With `COC1(OC)CCN2CC(c3ccccc3)N=C21` (centres unmarked) [Example 25, 2,5,6,7-Tetrahydro-2-phenyl-7,7-dimethoxy-3H-pyrrolo[1,2-a]imidazole sulfate], the “Percent Survival” value is listed as 0%.

In the next assay the test system is antibody secreting cells in the spleen. Put plainly: Kennedy Plaque Assay (humoral immune system depressed by 6-mercaptopurine; number of plaques). The assay is classed as in vivo. To be noted: ip; 60 mg/Kg of 6 MP plus 6.25 mg/Kg (i.p.) of compound; read-out: Percent Restoration (+) or Suppression (-). As to the method:
In this assay, in which the in vitro model used was the Kennedy modification of the Jerne (or plaque) technique (J. C. Kennedy et al, Immunol., 20, p. 253 (1971)), the animal's humoral immune system is depressed artificially by the known immunosuppressant drug, 6-mercaptopurine (6-MP), and then the ability of a drug to either suppress it further or restore it towards normal is evaluated. The change in the number of plaques, which is a direct correlate of the change in the number of antibody secreting cells in the spleen, is used to measure this effect. For example, the compound of Example 11 results in greater than 100% restoration of the number of plaques and thus causes an immunoenhancement of the humoral system. In contrast, the compound of Example 28 results in about 24% further suppression of the number of plaques and thus behaves as an immunosuppressant.
of 6 MP plus 6.25 mg/Kg (i.p.)
^1 without 6MP treatment
^2 percent change from control (i.e., without 6MP)
Regarding `[O-][S+](c1ccccc1)C1CCCN2CC(c3ccccc3)N=C12` (centres unmarked) [Example 28, 2,3,5,6,7,8-Hexahydro-2-phenyl-8-phenylsulfinylimidazo[1,2-a]pyridine sulfate], the change in vivo at 6.25 mg/kg was -24%.

On to `Clc1ccc(SC2CCCN3CC(c4ccccc4)N=C23)cc1` (centres unmarked) [Example 13, 2,3,5,6,7,8-Hexahydro-2-phenyl-8-p-chlorophenylthioimidazo[1,2-a]pyridine sulfate (1:1) salt], for which the change in vivo at 6.25 mg/kg is 103%.

Turning to `Cc1ccc(SC2CCCN3CC(c4ccccc4)N=C23)cc1` (centres unmarked) [Example 12, 2,3,5,6,7,8-Hexahydro-2-phenyl-8-p-tolylthioimidazo[1,2-a]pyridine sulfate (1:1) salt], the change in vivo at 6.25 mg/kg worked out at 50%.

With `c1ccc(SC2CCN3CC(c4ccccc4)N=C23)cc1` (centres unmarked) [Example 2, 2,5,6,7-Tetrahydro-2-phenyl-7-phenyl-thio-3H-pyrrolo[1,2-a]imidazole hydrochloride], the change in vivo at 6.25 mg/kg is 29%.

Regarding `c1ccc(SC2(Sc3ccccc3)CCCn3cc(-c4ccccc4)nc32)cc1` [Example 33, 5,6,7,8-Tetrahydro-2-phenyl-8,8-diphenylthio imidazo[1,2-a]pyridine], the change in vivo at 6.25 mg/kg came out at 25%.

For the compound `CCCCSC1CCN2CC(c3ccccc3)N=C12` (centres unmarked) [Example 7, 2,5,6,7-Tetrahydro-2-phenyl-7-n-butylthio-3H-pyrrolo[1,2-a]imidazole hydrochloride], the change in vivo at 6.25 mg/kg was -49%.

Still in this assay, the particulars now being: with 6-MP.
Regarding `[O-][S+](c1ccccc1)C1CCCN2CC(c3ccccc3)N=C12` (centres unmarked) [Example 28, 2,3,5,6,7,8-Hexahydro-2-phenyl-8-phenylsulfinylimidazo[1,2-a]pyridine sulfate], the “further suppression of the number of plaques” value is recorded as “about 24%”.

The same assay, now with this note: without 6MP treatment; 6.25 mg/Kg (i.p.) of compound.
On to `COc1ccc(C2CN3CCC(Sc4ccccc4)C3=N2)cc1` (centres unmarked) [Example 8, 2,5,6,7-Tetrahydro-2-p-methoxyphenyl-7-phenylthio-3H-pyrrolo[1,2-a]imidazole hydrochloride], for which the “percent change from control (i.e., without 6MP)” value was -36%.
